Test results published in patent US11970462B1, “Ethyl 3-[4,4-bis(4-chlorophenyl)-2,5-dioxoimidazolidin-1-yl]propanoate as an antimicrobial compound” (KING FAISAL UNIVERSITY, priority 2024, dated 2024).

How the values were obtained:
Assay type in all cases: cell-based
Details in all cases: after 10, 20, 40 and 60 minutes at all dilutions 1:100, 1:200, 1:400, 1:800
Staphylococcus aereus = test: Antimicrobial testing by agar dilution, St. Aereus
Description: (§1) The antimicrobial properties of the ethyl 3-[4,4-bis(4-chlorophenyl)-2,5-dioxoimidazolidin-1-yl]propanoate were studied by the method of agar dilution. Test solutions of each compound was prepared in concentration of 1% using dimethylformamide as a solvent then they are diluted in physiological solution to obtain the final experimental dilutions 1:100, 1:200, 1:400, 1:800. The effect of these substances are compared with furacillin in a controlable study. The testing microbes used were gram positive bacteria Staphylococcus aereus, gram negative bacteria Escherichia Coli, Pseudomonas aeruginosa and Candida albicans fungi were taken. The experiments used for this survey were meat-pentonlu agar (EPA) for cultivation of bacteria and Saburo environment for fungi. Each experiment used 1 ml of test solution on each plate 500 min. Add 2 drops of emulsified with microbes feel. All experimental samples were taken from the agar after 10, 20, 40, 60 minutes in the environment on the basis of Patrk planted. Bacteria were cultivated at a temperature of 37° C. for 1 day and the mushroom was kept in a thermostat for 2 hours at a temperature of 28° C. in the. Then results were checked.

Escherichia Coli = test: Antimicrobial testing by agar dilution, E. Coli
Description: as §1

Candida albicans = test: Antimicrobial testing by agar dilution, Candida albicans
Description: as §1

Pseudomonas aeruginosa = test: Antimicrobial testing by agar dilution, Ps. aeruginosa
Description: as §1

CCOC(=O)CCN1C(=O)NC(c2ccc(Cl)cc2)(c2ccc(Cl)cc2)C1=O [ethyl 3-[4,4-bis(4-chlorophenyl)-2,5-dioxoimidazolidin-1-yl]propanoate]
higher inhibition activity: inhibition activity (in words), Staphylococcus aereus (Staphylococcus aereus) | inhibition activity (in words), Escherichia Coli (Escherichia Coli) | inhibition activity (in words), Candida albicans (Candida albicans) | inhibition activity (in words), Pseudomonas aeruginosa (Pseudomonas aeruginosa)
